US11970505B1, “Pyridino-2,16-dioxapentacyclo[7.7.5.01,21.03,8.010,15]henicosa3(8),10,12,14-tetraene-7,20-dione as an antimicrobial compound” (KING FAISAL UNIVERSITY, priority 2023, dated 2024)

Legend:
Type in all cases: cell-based
Settings in all cases: after 10, 20, 40 and 60 minutes at all dilutions 1:100, 1:200, 1:400, and 1:800
Staphylococcus aureus = test: Antimicrobial activity by agar dilution, St. Aereus
Procedure: (§1) The antibacterial properties of the synthesized compound (pyridino-2,16-dioxapentacyclo[7.7.5.0^1,21.0^3,8.0^10,15]henicosa3(8),10,12,14-tetraene-7,20-dione) were studied by the method of agar dilution. Test solutions of each compound was prepared in concentration of 1% using dimethylformamide as a solvent. Then they were diluted in physiological solution to obtain the final experimental dilutions of 1:100, 1:200, 1:400, and 1:800. The effect of these substances were compared with furacillin in a controllable study. The testing microbes used were gram positive bacteria Staphylococcus aureus, gram negative bacteria Pseudomonas aeruginosa, Escherichia coli, and Candida albicans fungus. The experiments used for this survey were meat-pentonlu agar (EPA) for cultivation of bacteria and Saburo environment for fungi. Each experiment used 1 mL of test solution on each plate for 500 minutes. Two drops of emulsified with microbes feel were added. All experimental samples were taken from the agar after 10, 20, 40, 60 minutes in the environment on the basis of Patrk planted. Bacteria were cultivated at a temperature of 37° C. for 1 day and the mushroom was kept in a thermostat for […] at a temperature of 28° C. Then results were checked. Those of control and the antimicrobial activity for the synthesized compounds are listed in Table 1 below, with furacillin serving as a reference.

Pseudomonas aeruginosa = test: Antimicrobial activity by agar dilution, Ps. aeruginosa
Procedure: as §1

Escherichia coli = test: Antimicrobial activity by agar dilution, E. Coli
Procedure: as §1

Candida albicans = test: Antimicrobial activity by agar dilution, Candida albicans
Procedure: as §1

O=C1CCCC2=C1C1c3cccnc3OC3(CCCC(=O)C13)O2 (stereo not shown) [pyridino-2,16-dioxapentacyclo[7.7.5.0^1,21.0^3,8.0^10,15]henicosa3(8),10,12,14-tetraene-7,20-dione]
higher inhibition activity: inhibition activity compared with Furacilin, Staphylococcus aureus (Staphylococcus aureus) | inhibition activity compared with Furacilin, Pseudomonas aeruginosa (Pseudomonas aeruginosa) | inhibition activity compared with Furacilin, Escherichia coli (Escherichia coli) | inhibition activity compared with Furacilin, Candida albicans (Candida albicans)
